The nature of this data set: Solubility of the diastereomers in several solvent systems (mobile phases). The format is physicochemical. As for the experimental part:
In order to have a concentrated sample for loading on the simulated moving bed separation system, a high degree of solubility in the mobile phase to be used for the separation is desirable. Therefore, the solubility of the 1-nitro-3-benzyl-3-(N-ethoxycarbonyl)amino-2-propanol diastereomers in several solvent systems was determined.

“And” between values parts separate entries of the source, which are not always exact repeats. Equal values may be shown once.

In the case of `CCOC(=O)NC(Cc1ccccc1)C(O)C[N+](=O)[O-]` (single isomer, unassigned) [1-nitro-3-benzyl-3-benzyl-3-(N-ethoxycarbonyl)amino-2-propanol diastereomers, 1-nitro-3-benzyl-3-(N-ethoxycarbonyl)amino-2-propanol], the “% Solubility” value by setting is: (mobile phase 10% ethyl acetate/90% methylene chloride) 3.8%; (mobile phase 40% water/60% methanol) 1.7%; (mobile phase 50% heptane/50% THF) 20%; (mobile phase 50% heptane/50% ethyl acetate) 3.81%; (mobile phase 50% methanol/50% THF) 78%; (mobile phase 60% water/40% acetonitrile) 3.29%. Also, the “% Solubility” value (mobile phase 70% heptane/30% THF) is on record as 4%; the “% Solubility” value (mobile phase 70% heptane/30% ethanol) was 20%; the “% Solubility” value (mobile phase 70% heptane/30% ethyl acetate) is 1.11% and 1.09% and 1.31%; the “% Solubility” value (mobile phase 70% heptane/30% isopropanol) turned out to be 0.36%; the “% Solubility” value (mobile phase 80% heptane/20% ethanol) was 0.31% and 1.86%; the “% Solubility” value (mobile phase 80% toluene/20% THF) came to 6%. In addition, the “% Solubility” value (mobile phase 100% methanol) turned out to be 40%.

For the origin of these results see patent US20030040644A1, “Synthesis of nitroalcohol diastereomers” (Pharm-Eco Laboratories, Inc., priority 1999, published 2003).
